Converted amounts (≈) assume the structure as drawn. Read-outs that look alike come from different tables or passages of the source.
How the values were obtained:
Solubility in solvents = type: physicochemical; settings: read-out: Löslichkeit
Description: Zum Vergleich : Die Löslichkeit von BCM beträgt in Wasser 6 ppm und in Butanol 600 ppm.

holzverblauende Pilze = experiment: Münden strip method (Mündener Streifenmethode) on wood against blue-stain fungi; settings: in usual wood preservative formulation (alkyd resin, Testbenzin 60); 25 GT product of Beispiel 1 in 1000 GT, or 0,25 % BCM as comparison
Description: 25 GT eines Produktes gemäß Beispiel 1 werden zu 975 GT einer üblichen Holzschutzmittelformulierung gegeben, die zusammengesetzt ist aus 140 GT eines handelsüblichen Alkyldharzes, 4 GT Zinknaphthenat als Trockner, 4 GT eines handelsüblichen Hautverhütungsmittels, 30 GT Butyldiglykol und 797 GT Testbenzin 60.
Die Wirksamkeit der so biozid ausgerüsteten Holzschutzmittelformulierung gegen holzverblauende Pilze wird nach der Mündener Streifenmethode [H. Butin, Farbe und Lack, 71 (1965), 373] geprüft. Es ergibt sich eine bewuchsfreie Eindringtiefe von 3 bis 4 mm.
Zum Vergleich wird die oben angegebene übliche Holzschutzmittelformulierung mit 0,25 % Benzimidazolcarbaminsäuremethylester versetzt und unter gleichen Bedingungen geprüft. Es werden nur Eindringtiefen von 0,5 mm festgestellt.

COC(=O)Nc1nc2ccccc2[nH]1 [II, Benzimidazolcarbaminsäuremethylester]
solubility (Solubility in solvents; organic solvent or mixture, in Butanol): 600 µg/mL (≈ 3140 µM) | solubility (Solubility in solvents; water, in Wasser): 6 µg/mL (≈ 31.4 µM) | bewuchsfreie Eindringtiefe (holzverblauende Pilze): 0,5 mm
